According to patent US8231861B2, “Pancreatitis” (priority 2003, dated 2012):

What was measured:
[1] = system: wild type and TLR-4 knock out mice; test: Arginine-induced acute pancreatitis in wild type and TLR-4 knock out mice; type: in vivo; details: for pancreatitis outcome (in words): arginine 800 mg/100 g i.p. in two halves, evaluated three days later; for MPO activity in pancreas: after arginine i.p., FIG. 10
Method: To evaluate the effect of the absence of TLR4 in another model of pancreatitis, a new mouse model was created. […] See, e.g., Tani et al., Dig. Dis. Sci. 35, 367-374 (1990). Briefly, pancreatitis was induced in wild type and TLR-4 knock out mice by injecting (i.p.) arginine at a dose of 800 mg/100 g body weight. This dose of arginine was divided in two parts, one half injected at the beginning of the experiment and the other half injected one hour later. Three days later mice were sacrificed and the parameters relating to the severity of pancreatitis were evaluated. Analysis was performed substantially as described above.

[2] = system: wild type and TLR4−/− transgenic mice; details: mouse, in vivo, ip
Method: Studies were performed on wild type and TLR4−/− transgenic mice weighing about 25-30 grams. Animals were housed in cages under standard conditions at room temperature with a twelve-hour light and dark cycle. Food and drinking water were available ad libitum. Secretagogue-induced pancreatitis was elicited by the hourly (twelve times) intraperitoneal injection of caerulein (50 μg/kg). […] One hour after the final caerulein or saline injection, animals were sacrificed by CO2 asphyxia, and tissue and blood samples were rapidly prepared for study. Harvested blood was allowed to clot and then centrifuged, and serum was obtained for measurement of amylase. […]
Tissue myeloperoxidase (MPO) activity was used as a marker for the sequestration of neutrophils within the pancreas by quantitating photometrically using 3,3′,5,5′-tetramethylbenzidine as a substrate. Pancreatic edema was quantitated by measuring tissue water content and expressing it as a percentage of tissue wet weight. Serum amylase activity was quantitated as described in Singh et al., J. Clin. Invest., 108:1387-1395 (2001). The extent of pancreatic acinar cell necrosis was quantitated morphometrically by an observer who was not aware of the sample identity. […] Ten randomly chosen microscopic fields (×125) were examined for each tissue sample, and the extent of acinar cell injury/necrosis was expressed as a percentage of total acinar tissue. […]

pancreatitis outcome (in words) ([1]; TLR4 knock out mice) | MPO activity in pancreas ([1]; TLR4−/− mice) | reduction of serum amylase activity in TLR4−/− mice as compared to wild type mice ([1]; after administration of arginine i.p., FIG. 9) | MPO activity in pancreas ([1]; wild type mice) | reduction of serum amylase activity in TLR4−/− mice as compared to wild type mice [2] | Compound | pancreatitis outcome (in words) ([1]; normal (wild type) mice)
significantly milder pancreatitis | 6.8±6.2 | more than 2.5 fold | 472±320 |  | N=C(N)NCCC[C@H](N)C(=O)O [arginine] | pancreatitis that was more severe than that observed with caerulein administration
 |  |  |  | more than 1.6 fold | caerulein | 
